The supplement of paper PMC13380429

Key:
Settings in all cases: 72 h
HepG2 [1] = assay: cell viability relative to DMSO; higher = less toxic
Vero E6 [2] = assay: as above
Caco-2 [3] = assay: as above
Calu-3 [4] = assay: as above
U2OS [5] = assay: as above
HepG2 [6] = assay: relative viability EC50 (midpoint between 100% and the lowest measured viability); higher = less toxic
Vero E6 [7] = assay: as above
Caco-2 [8] = assay: as above
Calu-3 [9] = assay: as above
U2OS [10] = assay: as above
HepG2 [11] = assay: drug sensitivity score (DSS) for viability; higher = more toxic; extreme values may be limits of the assay
Vero E6 [12] = assay: as above
Caco-2 [13] = assay: as above
Calu-3 [14] = assay: as above
U2OS [15] = assay: as above

Row | SMILES | cell viability (HepG2 [1]; 1 nM) [%] | cell viability (HepG2 [1]; 10 nM) [%] | cell viability (HepG2 [1]; 100 nM) [%] | cell viability (HepG2 [1]; 1000 nM) [%] | cell viability (HepG2 [1]; 10000 nM) [%] | cell viability (Vero E6 [2]; 1 nM) [%] | cell viability (Vero E6 [2]; 10 nM) [%] | cell viability (Vero E6 [2]; 100 nM) [%] | cell viability (Vero E6 [2]; 1000 nM) [%] | cell viability (Vero E6 [2]; 10000 nM) [%] | cell viability (Caco-2 [3]; 1 nM) [%] | cell viability (Caco-2 [3]; 10 nM) [%] | cell viability (Caco-2 [3]; 100 nM) [%] | cell viability (Caco-2 [3]; 1000 nM) [%] | cell viability (Caco-2 [3]; 10000 nM) [%] | cell viability (Calu-3 [4]; 1 nM) [%] | cell viability (Calu-3 [4]; 10 nM) [%] | cell viability (Calu-3 [4]; 100 nM) [%] | cell viability (Calu-3 [4]; 1000 nM) [%] | cell viability (Calu-3 [4]; 10000 nM) [%] | cell viability (U2OS [5]; 1 nM) [%] | cell viability (U2OS [5]; 10 nM) [%] | cell viability (U2OS [5]; 100 nM) [%] | cell viability (U2OS [5]; 1000 nM) [%] | cell viability (U2OS [5]; 10000 nM) [%] | relative viability EC50 (HepG2 [6]) [µM] | relative viability EC50 (Vero E6 [7]) [µM] | relative viability EC50 (Caco-2 [8]) [µM] | relative viability EC50 (Calu-3 [9]) [µM] | relative viability EC50 (U2OS [10]) [µM] | drug sensitivity score (HepG2 [11]) | drug sensitivity score (Vero E6 [12]) | drug sensitivity score (Caco-2 [13]) | drug sensitivity score (Calu-3 [14]) | drug sensitivity score (U2OS [15])
1 | CCC(Cc1c(I)cc(I)c(N)c1I)C(=O)O (stereo not given) [iopanic-acid] | 106 | 112 | 100 | 110 | 99 | 109 | 103 | 104 | 102 | 93 | 110 | 107 | 98.8 | 85.8 | 113 | 101 | 91.4 | 96.4 | 102 | 108 | 99.7 | 95.6 | 97.9 | 96.7 | 97.1 | > 10 | > 10 | > 10 | > 10 | > 10 | 0 | 0 | 0 | 0 | 0
2 | CN(C)/C=N/c1c(I)cc(I)c(CCC(=O)O)c1I [iopodic-acid] | 98.8 | 93.7 | 116 | 95 | 98.4 | 108 | 101 | 108 | 99.1 | 102 | 99.8 | 102 | 94.3 | 96.2 | 105 | 101 | 95.4 | 89.5 | 99.4 | 93.2 | 98.2 | 100 | 98.9 | 102 | 97.2 | > 10 | > 10 | > 10 | > 10 | > 10 | 0 | 0 | 0 | 0 | 0
3 | C=CCN1CC[C@]23CCCC[C@H]2[C@H]1Cc1ccc(O)cc13 [levallorphan] | 102 | 105 | 94.2 | 98.9 | 88.8 | 101 | 103 | 99.3 | 105 | 101 | 94.6 | 105 | 108 | 95.6 | 104 | 108 | 97 | 99.8 | 101 | 104 | 98.6 | 93.8 | 97.3 | 102 | 103 | > 10 | > 10 | > 10 | > 10 | > 10 | 0 | 0 | 0 | 0 | 0
4 | Cc1ccc(F)cc1C(=O)Nc1ccc(C(=O)N2Cc3cccn3Cc3ccccc32)c(Cl)c1 [lixivaptan] | 114 | 108 | 99.5 | 103 | 84.2 | 106 | 103 | 102 | 102 | 95.8 | 96.6 | 88.4 | 91.4 | 88.3 | 95 | 102 | 98.6 | 96.2 | 105 | 108 | 101 | 96.5 | 101 | 96.3 | 97.7 | > 10 | > 10 | > 10 | > 10 | > 10 | 0.2 | 0 | 0 | 0 | 0
5 | COc1ccc(CN2CCN(C(c3ccc(F)cc3)c3ccc(F)cc3)CC2)c(OC)c1OC [lomerizine] | 110 | 102 | 102 | 93 | 106 | 92.7 | 96.5 | 91.7 | 93.7 | 96.7 | 96.9 | 104 | 87.9 | 98.8 | 82.7 | 88.9 | 98.3 | 94 | 139 | 96 | 89.7 | 99.3 | 90.3 | 95.1 | 99.1 | > 10 | > 10 | > 10 | > 10 | > 10 | 0 | 0 | 0.3 | 0 | 0
6 | CNC(=O)c1cccc2cc(Oc3ccnc4cc(OCC5(N)CC5)c(OC)cc34)ccc12 [lucitanib] | 95.7 | 108 | 106 | 104 | 84 | 97.2 | 100 | 98.8 | 86.1 | 86 | 93.6 | 98.1 | 93.2 | 97.6 | 100 | 98.8 | 93 | 101 | 98.9 | 92.1 | 99.1 | 94.4 | 93.6 | 99 | 91.5 | > 10 | > 10 | > 10 | > 10 | > 10 | 0.2 | 1.2 | 0 | 0 | 0
